Data reported in patent US5830697A, “P-glycoprotein mutant resistant to cyclosporin modulation” (The Board of Trustees of the Leland Stanford Junior …, priority 1997, dated 1998).
Where two headings read alike, the source gives them in different places.

Legend:
MES-SA/Dx5 (Dx5) cells = experiment: Growth inhibition (MTT) assay, with or without MDR modulators; assay type: cell-based, human
Experimental: (§1) Cells and Tissue Culture. Details of the development and characterization of the human cell line MES-SA and its MDR variant MES-SA/Dx5 (D×5), which were derived from sarcoma elements of a uterine mixed Mullerian tumor, are described in Harker and Sikic (1985) Cancer Research 45:3810-3815. MES-SA/DxP5002 (DxP) cells were derived from Dx5.05 cells (D×5 cells selected and maintained at a DOX concentration of 0.5 μM) by step-wise selection in the presence of increasing DOX concentrations (from 40 nM up to 0.5 μM) and a constant PSC 833 concentration at 2 μM over a one-year period. Monolayer cultures of MES-SA cells and its variants were grown in McCoy's medium (Irvine Scientific, Santa Ana, Calif.) supplemented with 10% newborn calf serum (Gibco, Grand Island, N.Y.), 2 mM L-glutamine, and antibiotics(100 U/ml penicillin, 100 μg/ml streptomycin).
(§2) Growth Inhibition Assay. Approximately 8000 cells per well were seeded in 96 well plates and incubated with or without drugs for 72 hr at 37° C. in an atmosphere of 5% CO2. Growth inhibition was evaluated by the MTT colorimetric assay in triplicate or quadruplicate as previously described. The absorbance was measured with a ThermoMax microplate reader (Molecular Devices, Menlo Park, Calif.). The IC50 (drug concentration resulting in 50% inhibition of MTT dye formation, compared to controls) was determined directly from semi-logarithmic dose-response curves. The doubling times of MES-SA, D×5, and D×P were determined as previously described.
(§3) Reversal of MDR by Modulators. […] The modulation ratio was obtained by comparing IC50 s in the presence and absence of modulators.

MES-SA cells = experiment: as above; assay type: cell-based, human; details: for IC50: Homo sapiens, read-out: IC50 of drug-sensitive MES-SA cells (values in parenthesis)
Experimental: as §1, §2, §3

[1] = system: MES-SA/DxP5002 (DxP) cells; experiment: as above; details: for Fold resistance / Level of resistance of DxP cells to the cytotoxin compared with parental Dx5 (in words): DxP cells; for Dx5/DxP, fold of resistance difference in DxP cells compared with parental Dx5 cells: DxP vs Dx5
Experimental: Cells and Tissue Culture. […] Monolayer cultures of MES-SA cells and its variants were grown in McCoy's medium (Irvine Scientific, Santa Ana, Calif.) supplemented with 10% newborn calf serum (Gibco, Grand Island, N.Y.), 2 mM L-glutamine, and antibiotics(100 U/ml penicillin, 100 μg/ml streptomycin).
as §2, with “The IC50 (drug concentration resulting in 50% inhibition of MTT dye formation, compared to controls) was determined directly from semi-logarithmic dose-response curves.” left out
as §3

Dx/PIS cells = experiment: MTT assay, DxP subclone; assay type: cell-based, human
Experimental: as §2, §3
(§4) Clonal Analysis of D×P cells. Subcloning of cells was performed by limiting dilution. Both resistant and revertant clones were analyzed for the MDR phenotype, drug accumulation, and rt-PCR or heteroduplex as described above.

Dx/PAS cells = experiment: MTT assay, DxP subclone; assay type: cell-based, human
Experimental: as §2, §3, §4

Dx/PES cells = experiment: MTT assay, DxP subclone; assay type: cell-based, human
Experimental: as §2, §3, §4

Dx/PBS cells = experiment: MTT assay, DxP subclone; assay type: cell-based, human
Experimental: as §2, §3, §4

Dx/PDS cells = experiment: MTT assay, DxP subclone; assay type: cell-based, human
Experimental: as §2, §3, §4

Dx/PFS cells = experiment: MTT assay, DxP subclone; assay type: cell-based, human
Experimental: as §2, §3, §4

Dx/PCS cells = experiment: MTT assay, DxP subclone; assay type: cell-based, human
Experimental: as §2, §3, §4

Dx/PJS cells = experiment: MTT assay, DxP subclone; assay type: cell-based, human
Experimental: as §2, §3, §4

Dx/PMS cells = experiment: MTT assay, DxP subclone; assay type: cell-based, human
Experimental: as §2, §3, §4

Dx/PGS cells = experiment: MTT assay, DxP subclone; assay type: cell-based, human
Experimental: as §2, §3, §4

P-gp of Dx5 cells = P-gp of Dx5 cells (Homo sapiens, UniProt P08183)
Experimental: (§5) Photoaffinity Labeling with [^25 -I]-iodoarylazidoprazesin and [^3 H]-Azidopine. […] These preparations were incubated at 25° C. for 1 hour in the dark, followed by a 20 min exposure to a 366 nm UV source (UVP, Inc., San Gabriel, Calif.). 50 μl of loading buffer was added and proteins separated on an 8% SDS-polyacrylamide gel, dried, and analyzed by autoradiography.

[2] = biological target: P-gp of DxP cells (Phe335/336 deletion) (Homo sapiens, UniProt P08183, DEL335-335)
Experimental: as §5

[3] = no modulator, relative to MES-SA
[4] = MES-SA cells, +3 μM cyclosporin A
[5] = MES-SA cells, no modulator, 72 hr MTT

Chain of P-gp of DxP cells (Phe335/336 deletion) (P08183 with tags, fused parts or gaps DEL335-335): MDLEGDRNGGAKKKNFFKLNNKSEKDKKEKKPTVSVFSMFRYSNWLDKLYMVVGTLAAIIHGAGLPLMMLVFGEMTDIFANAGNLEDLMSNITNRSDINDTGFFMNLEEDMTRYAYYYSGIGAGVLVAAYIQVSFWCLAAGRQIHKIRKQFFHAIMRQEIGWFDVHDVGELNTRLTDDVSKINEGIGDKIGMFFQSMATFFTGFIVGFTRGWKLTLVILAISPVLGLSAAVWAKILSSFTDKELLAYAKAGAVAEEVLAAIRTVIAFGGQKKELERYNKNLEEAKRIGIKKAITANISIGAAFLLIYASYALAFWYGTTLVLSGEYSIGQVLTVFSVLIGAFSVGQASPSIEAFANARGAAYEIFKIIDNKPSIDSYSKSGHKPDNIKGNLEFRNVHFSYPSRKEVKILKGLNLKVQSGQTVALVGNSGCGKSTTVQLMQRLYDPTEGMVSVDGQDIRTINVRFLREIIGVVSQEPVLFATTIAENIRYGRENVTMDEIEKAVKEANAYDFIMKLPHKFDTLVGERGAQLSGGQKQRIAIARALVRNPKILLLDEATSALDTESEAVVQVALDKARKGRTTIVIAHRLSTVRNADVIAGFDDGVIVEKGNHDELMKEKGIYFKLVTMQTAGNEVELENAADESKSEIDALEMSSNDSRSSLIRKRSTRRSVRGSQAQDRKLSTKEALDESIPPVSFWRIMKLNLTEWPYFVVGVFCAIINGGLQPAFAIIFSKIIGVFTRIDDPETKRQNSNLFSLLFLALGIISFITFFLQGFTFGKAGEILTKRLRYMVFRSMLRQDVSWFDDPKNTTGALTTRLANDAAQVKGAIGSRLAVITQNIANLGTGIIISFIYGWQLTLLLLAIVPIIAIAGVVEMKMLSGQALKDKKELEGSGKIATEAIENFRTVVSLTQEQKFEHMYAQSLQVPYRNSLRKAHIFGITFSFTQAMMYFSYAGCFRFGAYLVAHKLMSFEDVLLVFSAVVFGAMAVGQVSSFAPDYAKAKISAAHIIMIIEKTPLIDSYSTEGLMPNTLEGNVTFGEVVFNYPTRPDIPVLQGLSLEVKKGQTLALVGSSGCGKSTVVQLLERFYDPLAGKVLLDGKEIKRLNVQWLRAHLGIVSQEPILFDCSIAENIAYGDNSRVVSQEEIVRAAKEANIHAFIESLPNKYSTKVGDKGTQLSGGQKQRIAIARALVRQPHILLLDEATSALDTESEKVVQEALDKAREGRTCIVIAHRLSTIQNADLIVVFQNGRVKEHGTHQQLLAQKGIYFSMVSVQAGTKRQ
Chain of P-gp of Dx5 cells (P08183 whole entry): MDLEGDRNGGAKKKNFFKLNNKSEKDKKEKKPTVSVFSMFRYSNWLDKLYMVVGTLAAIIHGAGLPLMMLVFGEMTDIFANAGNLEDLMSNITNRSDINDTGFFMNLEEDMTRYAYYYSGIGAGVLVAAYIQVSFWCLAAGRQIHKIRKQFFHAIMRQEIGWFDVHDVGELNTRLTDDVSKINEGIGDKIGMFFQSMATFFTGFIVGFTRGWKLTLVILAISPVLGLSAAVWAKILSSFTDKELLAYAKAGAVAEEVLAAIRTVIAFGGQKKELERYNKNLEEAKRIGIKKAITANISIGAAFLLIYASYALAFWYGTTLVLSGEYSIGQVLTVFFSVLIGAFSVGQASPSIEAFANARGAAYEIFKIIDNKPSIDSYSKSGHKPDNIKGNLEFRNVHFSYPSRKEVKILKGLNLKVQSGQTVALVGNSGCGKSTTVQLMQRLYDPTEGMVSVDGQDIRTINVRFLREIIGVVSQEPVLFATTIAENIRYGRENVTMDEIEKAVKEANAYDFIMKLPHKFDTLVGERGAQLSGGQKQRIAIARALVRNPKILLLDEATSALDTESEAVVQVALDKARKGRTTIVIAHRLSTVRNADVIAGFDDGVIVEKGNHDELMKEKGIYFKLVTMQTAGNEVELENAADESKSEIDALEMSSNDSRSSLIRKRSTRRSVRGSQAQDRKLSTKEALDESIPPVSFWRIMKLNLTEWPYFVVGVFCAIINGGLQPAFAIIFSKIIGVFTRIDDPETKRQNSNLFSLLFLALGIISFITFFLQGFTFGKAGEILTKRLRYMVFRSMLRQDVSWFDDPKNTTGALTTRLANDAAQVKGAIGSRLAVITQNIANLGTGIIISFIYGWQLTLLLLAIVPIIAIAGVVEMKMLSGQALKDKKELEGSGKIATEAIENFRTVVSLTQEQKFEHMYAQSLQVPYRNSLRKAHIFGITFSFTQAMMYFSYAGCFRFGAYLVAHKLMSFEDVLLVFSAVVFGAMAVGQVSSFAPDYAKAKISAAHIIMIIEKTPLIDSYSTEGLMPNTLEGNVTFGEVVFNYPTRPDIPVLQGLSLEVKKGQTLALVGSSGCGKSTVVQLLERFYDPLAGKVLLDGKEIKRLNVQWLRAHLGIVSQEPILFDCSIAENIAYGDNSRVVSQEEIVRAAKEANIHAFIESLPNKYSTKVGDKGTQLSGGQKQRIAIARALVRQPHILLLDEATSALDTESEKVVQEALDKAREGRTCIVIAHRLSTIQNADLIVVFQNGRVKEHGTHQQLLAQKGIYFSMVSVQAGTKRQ

CC[C@]1(O)C[C@@H]2CN(CCc3c([nH]c4ccccc34)[C@@](C(=O)OC)(c3cc4c(cc3OC)N(C)[C@H]3[C@@](O)(C(=O)OC)[C@H](OC(C)=O)[C@]5(CC)C=CCN6CC[C@]43[C@@H]65)C2)C1 [Vinblastine]
Fold resistance (MES-SA/Dx5 (Dx5) cells; +2 μM PSC 833): 1 fold
Fold resistance (MES-SA/Dx5 (Dx5) cells; +3 μM cyclosporin A): 6 fold
Fold resistance (MES-SA/Dx5 (Dx5) cells; +6 μM Verapamil): 4 fold
Fold resistance (MES-SA/Dx5 (Dx5) cells; [3]): 243 fold
IC50 (MES-SA cells; MES-SA cells, 72 hr MTT): 0.004 µM
Fold resistance (MES-SA cells; MES-SA cells, +2 μM PSC 833): 0.3-1 fold
Fold resistance (MES-SA cells; MES-SA cells, +2 μM PSC 833, listed as vinblastine): 0.5 fold
Fold resistance (MES-SA cells; [4]): 0.5-1 fold
Fold resistance (MES-SA cells; MES-SA cells, +6 μM Verapamil): 0.4-1 fold
Fold resistance (MES-SA cells; [5]): 1 fold
Fold resistance ([1]; +2 μM PSC 833): 12 fold
Fold resistance ([1]; +3 μM cyclosporin A): 7 fold
Fold resistance ([1]; +6 μM Verapamil): 3 fold
Fold resistance [1, 3]: 14 fold
Dx5/DxP, fold of resistance difference in DxP cells compared with parental Dx5 cells [1]: 17 fold
fold resistance relative to MES-SA (Dx/PIS cells; + PSC): 1 fold
fold resistance relative to MES-SA (Dx/PIS cells; no modulator): 2 fold
fold resistance relative to MES-SA (Dx/PAS cells; + PSC): 5 fold
fold resistance relative to MES-SA (Dx/PAS cells; no modulator): 15 fold
fold resistance relative to MES-SA (Dx/PES cells; + PSC): 1 fold
fold resistance relative to MES-SA (Dx/PES cells; no modulator): 3 fold
fold resistance relative to MES-SA (Dx/PBS cells; + PSC): 1 fold
fold resistance relative to MES-SA (Dx/PBS cells; no modulator): 3 fold
fold resistance relative to MES-SA (Dx/PDS cells; + PSC): 6 fold
fold resistance relative to MES-SA (Dx/PDS cells; no modulator): 20 fold
fold resistance relative to MES-SA (Dx/PFS cells; + PSC): 8 fold
fold resistance relative to MES-SA (Dx/PFS cells; no modulator): 21 fold
fold resistance relative to MES-SA (Dx/PCS cells; + PSC): 3 fold
fold resistance relative to MES-SA (Dx/PCS cells; no modulator): 8 fold
fold resistance relative to MES-SA (Dx/PJS cells; + PSC): 10 fold
fold resistance relative to MES-SA (Dx/PJS cells; no modulator): 19 fold
fold resistance relative to MES-SA (Dx/PMS cells; + PSC): 2 fold
fold resistance relative to MES-SA (Dx/PMS cells; no modulator): 5 fold
fold resistance relative to MES-SA (Dx/PGS cells; + PSC): 1 fold
fold resistance relative to MES-SA (Dx/PGS cells; no modulator): 2 fold
Effect on [125I]-iodoarylazidoprazosin photoaffinity labeling of P-gp (P-gp of Dx5 cells; 100 μM): abolished detectable P-gp labeling
Effect on [125I]-iodoarylazidoprazosin photoaffinity labeling of P-gp (P-gp of Dx5 cells; 0.1 and 10 μM): effectively competed
Displacement of [3H]-azidopine photoaffinity labeling [2]: resistant to the displacement
Effect on [125I]-iodoarylazidoprazosin photoaffinity labeling of P-gp ([2]; 100 μM): abolished detectable P-gp labeling
Effect on [125I]-iodoarylazidoprazosin photoaffinity labeling of P-gp ([2]; 0.1 and 10 μM): enhanced photoaffinity binding

CCC1=C[C@@H]2CN(C1)Cc1c([nH]c3ccccc13)[C@@](C(=O)OC)(c1cc3c(cc1OC)N(C)[C@H]1[C@@](O)(C(=O)OC)[C@H](OC(C)=O)[C@]4(CC)C=CCN5CC[C@]31[C@@H]54)C2 [vinorelbine]
Fold resistance (MES-SA/Dx5 (Dx5) cells; [3]): 17 fold
IC50 (MES-SA cells; MES-SA cells, 72 hr MTT): 0.06 µM
Fold resistance (MES-SA cells; [5]): 1 fold
Fold resistance [1, 3]: 2 fold
Dx5/DxP, fold of resistance difference in DxP cells compared with parental Dx5 cells [1]: 9 fold

COc1cccc2c1C(=O)c1c(O)c3c(c(O)c1C2=O)C[C@@](O)(C(C)=O)C[C@@H]3O[C@H]1C[C@H](N)[C@H](O)[C@H](C)O1 [Daunorubicin]
Fold resistance (MES-SA/Dx5 (Dx5) cells; [3]): 75 fold
IC50 (MES-SA cells; MES-SA, 72 h): 0.02 µM
Fold resistance (MES-SA cells; [5]): 1 fold
Level of resistance of DxP cells to the cytotoxin compared with parental Dx5 (in words) [1]: slightly decreased
Fold resistance [1, 3]: 25 fold
Dx5/DxP, fold of resistance difference in DxP cells compared with parental Dx5 cells [1]: 3 fold

CC(=O)O[C@H]1C(=O)[C@@]2(C)[C@H]([C@H](OC(=O)c3ccccc3)[C@]3(O)C[C@H](OC(=O)[C@H](O)[C@@H](NC(=O)c4ccccc4)c4ccccc4)C(C)=C1C3(C)C)[C@]1(OC(C)=O)CO[C@@H]1C[C@@H]2O [Paclitaxel]
Fold resistance (MES-SA/Dx5 (Dx5) cells; +2 μM PSC 833): 1 fold
Fold resistance (MES-SA/Dx5 (Dx5) cells; +3 μM cyclosporin A): 13 fold
Fold resistance (MES-SA/Dx5 (Dx5) cells; +6 μM Verapamil): 25 fold
Fold resistance (MES-SA/Dx5 (Dx5) cells; [3]): 175 fold
IC50 (MES-SA cells; MES-SA cells, 72 hr MTT): 0.001 µM
Fold resistance (MES-SA cells; MES-SA cells, +2 μM PSC 833): 0.3-1 fold
Fold resistance (MES-SA cells; [4]): 0.5-1 fold
Fold resistance (MES-SA cells; MES-SA cells, +6 μM Verapamil): 0.3-1 fold
Fold resistance (MES-SA cells; [5]): 1 fold
Level of resistance of DxP cells to the cytotoxin compared with parental Dx5 (in words) [1]: high levels of resistance
Fold resistance ([1]; +2 μM PSC 833): 5 fold
Fold resistance ([1]; +3 μM cyclosporin A): 38 fold
Fold resistance ([1]; +6 μM Verapamil): 44 fold
Fold resistance [1, 3]: 100 fold
Dx5/DxP, fold of resistance difference in DxP cells compared with parental Dx5 cells [1]: 2 fold

COc1cc(NS(C)(=O)=O)ccc1Nc1c2ccccc2nc2ccccc12 [Amsacrine]
Fold resistance (MES-SA/Dx5 (Dx5) cells; [3]): 26 fold
IC50 (MES-SA cells; MES-SA cells, 72 hr MTT): 0.1 µM
Fold resistance (MES-SA cells; [5]): 1 fold
Fold resistance [1, 3]: 2 fold
Dx5/DxP, fold of resistance difference in DxP cells compared with parental Dx5 cells [1]: 13 fold
